Measurements: a compilation of properties of binary mixtures (doi:10.1016/j.fluid.2015.01.011)

Experiment: xn = mol fraction of the nth substance listed
Conditions: 100 kPa

Q: Which results are given for CC[n+]1ccn(C)c1.N#C[N-]C#N + CC[n+]1ccn(C)c1.N#C[S-]?
A: electrical conductivity (298.15 K, x2 = 0): 2.84 S/m; viscosity (298.15 K, x2 = 0): 14.78 mPa·s; electrical conductivity (298.15 K, x2 = 0.5112): 2.51 S/m; viscosity (298.15 K, x2 = 0.5112): 18.27 mPa·s; electrical conductivity (298.15 K, x2 = 0.7603): 2.41 S/m; viscosity (298.15 K, x2 = 0.7603): 20.62 mPa·s; electrical conductivity (303.15 K, x2 = 0): 3.22 S/m; viscosity (303.15 K, x2 = 0): 12.87 mPa·s; electrical conductivity (303.15 K, x2 = 0.2585): 3.05 S/m; viscosity (303.15 K, x2 = 0.2585): 14.18 mPa·s; electrical conductivity (303.15 K, x2 = 0.5112): 2.89 S/m; viscosity (303.15 K, x2 = 0.5112): 15.74 mPa·s; electrical conductivity (303.15 K, x2 = 0.7603): 2.76 S/m; viscosity (303.15 K, x2 = 0.7603): 17.66 mPa·s; electrical conductivity (308.15 K, x2 = 0): 3.63 S/m; viscosity (308.15 K, x2 = 0): 11.3 mPa·s; electrical conductivity (308.15 K, x2 = 0.5112): 3.27 S/m; viscosity (308.15 K, x2 = 0.5112): 13.7 mPa·s; electrical conductivity (308.15 K, x2 = 0.7603): 3.14 S/m; viscosity (308.15 K, x2 = 0.7603): 15.3 mPa·s; electrical conductivity (313.15 K, x2 = 0): 4.06 S/m; viscosity (313.15 K, x2 = 0): 9.76 mPa·s; electrical conductivity (313.15 K, x2 = 0.2585): 3.87 S/m; viscosity (313.15 K, x2 = 0.2585): 10.72 mPa·s; electrical conductivity (313.15 K, x2 = 0.5112): 3.67 S/m; viscosity (313.15 K, x2 = 0.5112): 11.78 mPa·s; electrical conductivity (313.15 K, x2 = 0.7603): 3.56 S/m; viscosity (313.15 K, x2 = 0.7603): 13.12 mPa·s; electrical conductivity (318.15 K, x2 = 0.2585): 4.33 S/m; viscosity (318.15 K, x2 = 0.2585): 9.75 mPa·s; electrical conductivity (318.15 K, x2 = 0.5112): 4.14 S/m; viscosity (318.15 K, x2 = 0.5112): 10.66 mPa·s; electrical conductivity (323.15 K, x2 = 0): 5.02 S/m; viscosity (323.15 K, x2 = 0): 8.01 mPa·s; electrical conductivity (323.15 K, x2 = 0.2585): 4.81 S/m; viscosity (323.15 K, x2 = 0.2585): 8.73 mPa·s; electrical conductivity (323.15 K, x2 = 0.7603): 4.48 S/m; viscosity (323.15 K, x2 = 0.7603): 10.47 mPa·s; viscosity (328.15 K, x2 = 0): 7.24 mPa·s; viscosity (328.15 K, x2 = 0.5112): 8.54 mPa·s; viscosity (328.15 K, x2 = 0.7603): 9.37 mPa·s; viscosity (333.15 K, x2 = 0.2585): 6.92 mPa·s; viscosity (333.15 K, x2 = 0.5112): 7.51 mPa·s; viscosity (333.15 K, x2 = 0.7603): 8.25 mPa·s; viscosity (338.15 K, x2 = 0): 6 mPa·s; viscosity (338.15 K, x2 = 0.5112): 7.01 mPa·s; viscosity (338.15 K, x2 = 0.7603): 7.64 mPa·s; viscosity (343.15 K, x2 = 0): 5.51 mPa·s; viscosity (343.15 K, x2 = 0.2585): 5.94 mPa·s; viscosity (343.15 K, x2 = 0.5112): 6.4 mPa·s; viscosity (343.15 K, x2 = 0.7603): 6.95 mPa·s; viscosity (348.15 K, x2 = 0): 5.06 mPa·s; viscosity (348.15 K, x2 = 0.2585): 5.47 mPa·s; viscosity (348.15 K, x2 = 0.7603): 6.36 mPa·s; viscosity (353.15 K, x2 = 0): 4.52 mPa·s; viscosity (353.15 K, x2 = 0.2585): 4.89 mPa·s; viscosity (353.15 K, x2 = 0.5112): 5.25 mPa·s

Q: For CC[n+]1ccn(C)c1.N#C[S-] + CC[n+]1ccn(C)c1.N#C[N-]C#N, which electrical conductivity (298.15 K, x1 = 1) is on record?
A: The electrical conductivity was 2.32 S/m.

Q: What about the viscosity (298.15 K, x1 = 1) of the same compound?
A: Its viscosity is 23.1 mPa·s.

Q: What about the electrical conductivity (303.15 K, x1 = 1) of the same compound?
A: The electrical conductivity was 2.67 S/m.

Q: What about the viscosity (303.15 K, x1 = 1) of the same compound?
A: Its viscosity is 19.68 mPa·s.

Q: What about the electrical conductivity (308.15 K, x1 = 1) of the same compound?
A: The electrical conductivity was 3.06 S/m.

Q: What about the viscosity (308.15 K, x1 = 1) of the same compound?
A: Its viscosity is 16.97 mPa·s.

Q: What about the electrical conductivity (313.15 K, x1 = 1) of the same compound?
A: The electrical conductivity was 3.47 S/m.

Q: And the viscosity (313.15 K, x1 = 1)?
A: The viscosity was 14.54 mPa·s.

Q: And the electrical conductivity (323.15 K, x1 = 1)?
A: The electrical conductivity was 4.38 S/m.

Q: What about the viscosity (323.15 K, x1 = 1) of the same compound?
A: Its viscosity is 11.49 mPa·s.

Q: What about the viscosity (333.15 K, x1 = 1) of the same compound?
A: Its viscosity is 9.02 mPa·s.

Q: And the viscosity (348.15 K, x1 = 1)?
A: The viscosity was 6.87 mPa·s.

Q: What about the viscosity (353.15 K, x1 = 1) of the same compound?
A: The viscosity was 6.17 mPa·s.

Q: Which electrical conductivity (298.15 K, x2 = 0) does the source give for CC[n+]1ccn(C)c1.N#C[S-] + [N-]=C=S.[NH4+] here?
A: The electrical conductivity was 2.32 S/m.

Q: What about the viscosity (298.15 K, x2 = 0) of the same compound?
A: Its viscosity is 23.1 mPa·s.

Q: What about the electrical conductivity (303.15 K, x2 = 0) of the same compound?
A: Its electrical conductivity is 2.67 S/m.

Q: And the viscosity (303.15 K, x2 = 0)?
A: Its viscosity is 19.68 mPa·s.

Q: What about the electrical conductivity (308.15 K, x2 = 0) of the same compound?
A: The electrical conductivity was 3.06 S/m.

Q: What about the viscosity (308.15 K, x2 = 0) of the same compound?
A: The viscosity was 16.97 mPa·s.

Q: What about the electrical conductivity (313.15 K, x2 = 0) of the same compound?
A: Its electrical conductivity is 3.47 S/m.

Q: What about the viscosity (313.15 K, x2 = 0) of the same compound?
A: The viscosity was 14.54 mPa·s.

Q: What about the electrical conductivity (318.15 K, x2 = 0) of the same compound?
A: The electrical conductivity was 3.92 S/m.

Q: And the viscosity (318.15 K, x2 = 0)?
A: Its viscosity is 12.98 mPa·s.

Q: And the viscosity (328.15 K, x2 = 0)?
A: Its viscosity is 10.25 mPa·s.

Q: And the viscosity (333.15 K, x2 = 0)?
A: The viscosity was 9.02 mPa·s.

Q: And the viscosity (338.15 K, x2 = 0)?
A: Its viscosity is 8.3 mPa·s.

Q: What about the viscosity (343.15 K, x2 = 0) of the same compound?
A: The viscosity was 7.53 mPa·s.

Q: Which electrical conductivity (298.15 K, x2 = 0) does the source give for CCOS(=O)(=O)[O-].CC[n+]1ccn(C)c1 + CC[n+]1ccn(C)c1.N#C[S-] here?
A: The electrical conductivity was 0.308 S/m.

Q: What about the viscosity (298.15 K, x2 = 0) of the same compound?
A: The viscosity was 96.9 mPa·s.

Q: And the electrical conductivity (303.15 K, x2 = 0)?
A: Its electrical conductivity is 0.382 S/m.

Q: And the viscosity (303.15 K, x2 = 0)?
A: Its viscosity is 76.5 mPa·s.

Q: And the electrical conductivity (308.15 K, x2 = 0)?
A: The electrical conductivity was 0.469 S/m.

Q: And the viscosity (308.15 K, x2 = 0)?
A: The viscosity was 61.6 mPa·s.

Q: And the electrical conductivity (313.15 K, x2 = 0)?
A: The electrical conductivity was 0.57 S/m.

Q: What about the electrical conductivity (318.15 K, x2 = 0) of the same compound?
A: Its electrical conductivity is 0.678 S/m.

Q: What about the electrical conductivity (323.15 K, x2 = 0) of the same compound?
A: The electrical conductivity was 0.871 S/m.

Q: And the viscosity (323.15 K, x2 = 0)?
A: The viscosity was 35 mPa·s.

Q: What about the viscosity (328.15 K, x2 = 0) of the same compound?
A: Its viscosity is 29.7 mPa·s.

Q: And the viscosity (333.15 K, x2 = 0)?
A: Its viscosity is 25.6 mPa·s.

Q: And the viscosity (338.15 K, x2 = 0)?
A: The viscosity was 22.04 mPa·s.

Q: And the viscosity (343.15 K, x2 = 0)?
A: Its viscosity is 19.23 mPa·s.

Q: And the viscosity (348.15 K, x2 = 0)?
A: The viscosity was 16.89 mPa·s.
